From patent publication US20260248922A1, “TREATMENT OF SIGNS, SYMPTOMS AND/OR COMPLICATIONS OF VIRAL, BACTERIAL, PROTOZOAL, AND/OR FUNGAL INFECTIONS BY HIGH PENETRATION PRODRUGS” (priority 2022, published 2026)

Key:
[1] = tested on: cecal slurry-induced sepsis; experiment: Cecal slurry-induced sepsis mouse model (Example 75); assay type: in vivo, C57/BL6 mice; details: transdermal once a day
Method: (§1) A total of seventy C57/BL6 mice (7 groups, 10/group) were used in this study. At day 0, mice were anesthetized with isoflurane and held in a dorsal recumbent position for administration of 10 mg/mouse cecal slurry by intraperitoneal (IP) injections, from hour 2 post challenge, mice were received a single dose of different concentrations of test article or vehicle control once a day up to 15th day with dose initiation on hour 2 post challenge. Group 1 served as an infected control group and was treated with vehicle (35% ethanol). […] Mice were observed following viral challenge for clinical signs of illness including body weights, health score, morbidity and mortality.

H1N1 virus = H1N1 virus infection mouse model (Example 65); assay type: in vivo, mice; details: transdermal once a day
Method: as §1, with “seventy” for “seventy C57/BL6”, “0.1×TCID50/mouse virus (new batch)” for “10 mg/mouse cecal slurry”, “internasal instillation,” for “intraperitoneal (IP) injections,”, “day” for “hour”
Lung lesions and peribronchiolitis of all deceased and surviving animals were characterized (Table 7).

paw edema = experiment: Antiinflammatory activity, carrageenan paw edema in rats; assay type: in vivo, Wistar Rats; details: transdermal, 20 mg/kg
LPS-induced fever = experiment: Antipyretic activity, fever induced by LPS in rats; assay type: in vivo, Sprague Dawley rats; details: transdermal, 20 mg/kg
Method: The body temperature of rats was taken at 0 (2 hours after the challenge), 90 min, 180 min, and 270 min after the administration of the test compounds.

[2] = Skin penetration through rabbit skin in vitro, modified Franz cells; details: receiving fluid pure water
COVID-19 [3] = experiment: Phase 2 placebo-controlled study in COVID-19 infection in hospitalized adults (Example 81); assay type: in vivo, human; details: hospitalized COVID-19 patients, 7% solution in 15% ethanol sprayed on skin BID for 28 days
Excerpt: Patients cannot be enrolled or randomized before all eligibility criteria (including test results) are confirmed.
Inclusion criteria: • 1. Admitted to a hospital with pulmonary symptoms of active COVID-19. • 2. Patient (or legally authorized representative) provides informed consent prior to initiation of any study procedures. • 3. Patient (or legally authorized representative) understands and agrees to comply with planned study procedures. • 4. Male or nonpregnant female adult ≥18 years of age at time of enrollment. • 5. Has laboratory confirmed severe acute respiratory syndrome coronavirus 2 (COVID-19) infection as determined by polymerase chain reaction (PCR) or other commercial or public health assay (serology is not acceptable) in any specimen, as documented by either of the following: • a. Laboratory confirmed COVID-19 infection by method as defined above, in sample collected <72 hours prior to randomization; OR • b. […] Has a room-air SpO2<93% and a score of 4 (hospitalized, oxygen by mask or nasal prongs), or room-air SpO2<93% and a score of 5 (hospitalized, noninvasive ventilation or high-flow oxygen), or a score 6 (hospitalized, intubation and mechanical ventilation) in the ordinal scale, which specifically is as follows: • 0) Uninfected, no clinical or virological evidence of infection • 1) Ambulatory (not diagnosed), no limitations of activities. • 2) Ambulatory (not diagnosed), limitation on activities and/or requiring home oxygen • 3) Diagnosed (mild disease), no requiring supplemental oxygen; • 4) Diagnosed (moderate disease), requiring supplemental oxygen (by mask or nasal prongs)—requiring ongoing medical care (COVID-19 related or otherwise); • 5) Diagnosed (severe disease), non-invasive ventilation or high-flow oxygen; • 6) Diagnosed (severe disease), intubation and mechanical ventilation; • 7) Diagnosed (severe disease), ventilation+additional organ support-pressors, RRT, or extracorporeal membrane oxygenation (ECMO); • 8) Death. • 7. […]

MRSA = experiment: Sepsis model of MRSA infection in mice (Example 79); assay type: in vivo, C57/BL6 mice; details: transdermal once a day
Excerpt: as §1, with “2×10^7CFU S. aureus” for “10 mg/mouse cecal slurry”, “MRSA” for “viral”

COVID-19 [4] = experiment: COVID-19 infection mouse model (Example 70); assay type: in vivo, hACE2 mice; details: transdermal once a day
Method: as §1, with “hACE2” for “C57/BL6”, “3×10 PFU/mouse COVID-19” for “10 mg/mouse cecal slurry”, “internasal instillation,” for “intraperitoneal (IP) injections,”, “day 1” for “hour 2”
Lung lesions and peribronchiolitis of all deceased and surviving animals were characterized (Table 17).

[5] = 2 h (before test articles treatment)
[6] = 6 h (4 hours after administration)
[7] = time 0 (before carrageenan challenge)
[8] = T = 0 min (2 hours after LPS challenge)

In the case of CC(C(=O)OCC1CCCN1)c1cccc(Oc2ccccc2)c1.Cl (stereo not shown) [Example 30, (pyrrolidin-2-yl)methyl 2-(3-phenoxyphenyl) propionate hydrochloride], the survival ([1]; group 2, low dose 25.1 mg/kg) is reported as 10%, the survival ([1]; group 3, mid dose 50.2 mg/kg) is reported as 30% and the survival ([1]; group 4, high dose 100.3 mg/kg) is reported as 40%.

Work on Cl.O=C(Cc1ccccc1Nc1c(Cl)cccc1Cl)OCC1CCCN1 (stereo not shown) [Example 1] yielded a survival (H1N1 virus; group 5, low dose 24.6 mg/kg) of 70%, a survival (H1N1 virus; group 6, mid dose 49.2 mg/kg) of 60% and a survival (H1N1 virus; group 7, high dose 98.4 mg/kg) of 50%. For the same molecule, the “Paw Volume Mean” value (paw edema; [5]) was 1.719 mL, the “Paw Volume Mean” value (paw edema; [6]) was 1.314 mL and the “Paw Volume Mean” value (paw edema; [7]) was 1.245 mL. For the same molecule, the “body temperature (Mean)” value (LPS-induced fever; [8]) was 38.38, the “body temperature (Mean)” value (LPS-induced fever; T = 90 min) was 37.10 and the “body temperature (Mean)” value (LPS-induced fever; T = 180 min) was 36.42. For the same molecule, the “body temperature (Mean)” value (LPS-induced fever; T = 270 min) was 36.41, the “The cumulative amount of test compounds” value ([2]; 1 h) was 0.48 mg and the “The cumulative amount of test compounds” value ([2]; 2 h) was 0.99 mg. For the same molecule, the “The cumulative amount of test compounds” value ([2]; 4 h) was 2.03 mg and the “The cumulative amount of test compounds” value ([2]; 8 h) was 4.09 mg.

For CCN(CC)CCOC(=O)c1ccccc1OC(C)=O.Cl [Example 4], the “hospital stay time, average” value (COVID-19 [3]) was “about 4 days”, the “time to an improvement of 2 categories using 9-point ordinal scale, average” value (COVID-19 [3]) was “about 3 days” and the “time to maintain peripheral capillary oxygen saturation (SpO2) of >93% without oxygen support, average” value (COVID-19 [3]) was “about 3 days”.

With CCN(CC)CCOC(=O)C(C)c1ccc(CC(C)C)cc1.Cl (stereo not shown) [Example 2] the “Paw Volume Mean” value (paw edema; [5]) was 1.697 mL, the “Paw Volume Mean” value (paw edema; [6]) was 1.402 mL and the “Paw Volume Mean” value (paw edema; [7]) was 1.225 mL. For the same molecule, the “body temperature (Mean)” value (LPS-induced fever; [8]) was 38.31, the “body temperature (Mean)” value (LPS-induced fever; T = 90 min) was 37.57 and the “body temperature (Mean)” value (LPS-induced fever; T = 180 min) was 36.86. For the same molecule, the “body temperature (Mean)” value (LPS-induced fever; T = 270 min) was 36.63, the survival (MRSA; group 5, low dose 24.6 mg/kg) was 40% and the survival (MRSA; group 6, mid dose 49.2 mg/kg) was 60%. For the same molecule, the survival (MRSA; group 7, high dose 98.4 mg/kg) was 50%, the survival ([1]; group 5, low dose 24.6 mg/kg) was 50% and the survival ([1]; group 6, mid dose 49.2 mg/kg) was 50%. For the same molecule, the survival ([1]; group 7, high dose 98.4 mg/kg) was 40%, the survival (COVID-19 [4]; group 5, low dose 24.6 mg/kg) was 60% and the survival (COVID-19 [4]; group 6, mid dose 49.2 mg/kg) was 50%. For the same molecule, the survival (COVID-19 [4]; group 7, high dose 98.4 mg/kg) was 50%.

COc1ccc2cc(C(C)C(=O)OCC3CCCN3)ccc2c1.Cl (stereo not shown) [Example 16, (pyrrolidin-2-yl)methyl 2-(6-methoxy-2-naphthyl) propanoate hydrochloride] showed a survival (H1N1 virus; group 2, low dose 25.1 mg/kg) of 20%, a survival (H1N1 virus; group 3, mid dose 50.2 mg/kg) of 20% and a survival (H1N1 virus; group 4, high dose 100.3 mg/kg) of 40%. The “body temperature (Mean)” value (LPS-induced fever; [8]) was 38.30, the “body temperature (Mean)” value (LPS-induced fever; T = 90 min) was 37.38 and the “body temperature (Mean)” value (LPS-induced fever; T = 180 min) was 36.79. For the same molecule, the “body temperature (Mean)” value (LPS-induced fever; T = 270 min) was 36.53, the survival (MRSA; group 2, low dose 25.1 mg/kg) was 20% and the survival (MRSA; group 3, mid dose 50.2 mg/kg) was 30%. The survival (MRSA; group 4, high dose 100.3 mg/kg) was 40%, the survival (COVID-19 [4]; group 2, low dose 25.1 mg/kg) was 30% and the survival (COVID-19 [4]; group 3, mid dose 50.2 mg/kg) was 50%. The survival (COVID-19 [4]; group 4, high dose 100.3 mg/kg) was 50%.
